According to ChEMBL document CHEMBL1152381, “Investigation of aminopyridiopyrazinones as PDE5 inhibitors: Evaluation of modifications to the central ring system” (Bioorg Med Chem Lett, 2009):
In brackets after ≈: the same amount, converted by molar mass.

Legend:
[1] = Inhibition of PDE6
[2] = Inhibition of PDE11
[3] = Aqueous solubility at pH 7.4; assay type: physicochemical
[4] = Metabolic stability in human liver microsomes assessed as compound remaining after 30 mins; assay type: ADME, Microsome; conditions: read-out: Stability
hERG (KCNH2) = hERG (KCNH2) (Homo sapiens, UniProt Q12809); experiment: Displacement of dofetilide from human ERG at 10 uM; conditions: probe dofetilide
Sequence of hERG (KCNH2) (Q12809 whole entry): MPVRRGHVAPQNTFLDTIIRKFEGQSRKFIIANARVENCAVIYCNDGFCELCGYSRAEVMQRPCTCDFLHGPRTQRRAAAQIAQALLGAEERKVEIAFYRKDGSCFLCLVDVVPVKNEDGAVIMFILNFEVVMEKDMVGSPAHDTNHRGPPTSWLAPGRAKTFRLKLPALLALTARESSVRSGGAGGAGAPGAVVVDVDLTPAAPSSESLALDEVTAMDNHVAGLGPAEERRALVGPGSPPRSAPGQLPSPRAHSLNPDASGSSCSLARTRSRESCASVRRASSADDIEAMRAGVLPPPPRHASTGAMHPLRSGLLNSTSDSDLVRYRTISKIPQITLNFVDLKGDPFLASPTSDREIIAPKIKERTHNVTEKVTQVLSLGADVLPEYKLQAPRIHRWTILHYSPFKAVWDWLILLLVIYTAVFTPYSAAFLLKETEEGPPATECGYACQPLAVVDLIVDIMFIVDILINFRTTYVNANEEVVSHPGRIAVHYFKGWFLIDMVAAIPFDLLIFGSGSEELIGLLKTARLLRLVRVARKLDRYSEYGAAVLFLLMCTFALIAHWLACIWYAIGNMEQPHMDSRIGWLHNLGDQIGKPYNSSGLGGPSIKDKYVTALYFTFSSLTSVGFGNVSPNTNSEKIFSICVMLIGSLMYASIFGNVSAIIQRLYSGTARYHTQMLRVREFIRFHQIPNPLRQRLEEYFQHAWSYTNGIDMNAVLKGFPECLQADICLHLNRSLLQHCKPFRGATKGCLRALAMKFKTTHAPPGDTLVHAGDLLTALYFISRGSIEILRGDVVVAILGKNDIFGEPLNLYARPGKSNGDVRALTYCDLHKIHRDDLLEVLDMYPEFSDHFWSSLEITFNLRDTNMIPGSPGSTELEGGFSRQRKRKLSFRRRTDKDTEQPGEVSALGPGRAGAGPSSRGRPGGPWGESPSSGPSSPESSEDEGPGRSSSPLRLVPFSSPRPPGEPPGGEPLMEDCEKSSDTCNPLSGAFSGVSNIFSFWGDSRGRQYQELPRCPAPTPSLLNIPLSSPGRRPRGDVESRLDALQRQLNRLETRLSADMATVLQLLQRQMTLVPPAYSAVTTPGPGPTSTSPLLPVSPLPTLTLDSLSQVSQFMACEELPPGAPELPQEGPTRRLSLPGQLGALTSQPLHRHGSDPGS

[5] = Volume of distribution in Sprague-Dawley rat at 2 mg/kg, iv and 2 mg/kg, po; assay type: ADME, organism-based; conditions: in vivo
[6] = Clearance in Sprague-Dawley rat at 2 mg/kg, iv and 2 mg/kg, po; assay type: ADME, organism-based; conditions: in vivo
[7] = Half life in Sprague-Dawley rat at 2 mg/kg, iv and 2 mg/kg, po; assay type: ADME, organism-based; conditions: in vivo
[8] = Bioavailability in Sprague-Dawley rat at 2 mg/kg, iv and 2 mg/kg, po; assay type: ADME, organism-based; conditions: in vivo
[9] = Plasma protein binding in Sprague-Dawley rat at 2 mg/kg, iv and 2 mg/kg, po; assay type: ADME, organism-based; conditions: read-out: PPB (converted)
[10] = target: cGMP-specific 3',5'-cyclic phosphodiesterase (Homo sapiens, UniProt O76074); experiment: Inhibition of PDE5
[11] = Metabolic stability in human hepatocytes assessed as compound remaining after 30 mins; assay type: ADME, cell-based, Hepatocyte; conditions: read-out: Stability
[12] = Selectivity ratio of IC50 for PDE6 to IC50 for PDE5
[13] = Selectivity ratio of IC50 for PDE11 to IC50 for PDE5
[14] = target: Voltage-gated inwardly rectifying potassium channel KCNH2 (Homo sapiens, UniProt Q12809); experiment: Inhibition of human ERG by patch-clamp electrophysiology assay
Sequence of Voltage-gated inwardly rectifying potassium channel KCNH2 (Q12809 whole entry): as above

Rattus norvegicus = experiment: Antihypertensive activity in SHR rat assessed as reduction in systemic arterial blood pressure at 1.5 mg/kg, ip administered as single bolus dose measured for > 3 hrs; assay type: functional, Artery; conditions: route intraperitoneal

Row | SMILES | IC50 [1] [nM] | IC50 [2] [nM] | solubility [3] [µM] | remaining at 0.5 h [4] [%] | Vd [5] [L/kg] | clearance [6] [mL/min/kg] | half-life [7] [min] | bioavailability [8] [%] | fraction unbound [9] | IC50 [10] [nM] | remaining at 0.5 h [11] [%] | Ratio IC50 [12] | Ratio IC50 [13] | inhibition at 10 µM (hERG (KCNH2)) [%] | inhibition (INH) [14] [%] | Activity (Rattus norvegicus) [mmHg]
1 | CCCOCCn1c(=O)c(NCCN2CCOCC2)nc2ccc(-c3ccc(OC)nc3)nc21 | 339 | 1540 | 4.6 (≈ 2.16 µg/mL) | 10 | 8 | 67.6 | 186 | 23 | 0.104 | – | – | – | – | 14 | – | –
2 | CCCOCCn1c(=O)c(NCCN2CCOCC2)nc2ccc(-c3ccc(OC)nc3)cc21 | 177 | > 1990 | – | – | – | – | – | – | – | 0.9 | 20 | – | – | 43 | – | –
3 | CCCOCCn1c(=O)c(NCCN2CCOCC2)nc2ncc(-c3ccc(OC)nc3)nc21 | 297 | 3560 | – | 12 | 5.2 | 151 | 36 | – | 0.088 | 1.21 | – | < 30 | 335 | 11 | – | –

The next compounds have a lower IC50 [1] than those just listed; values first:

Row | IC50 [1] [nM] | IC50 [2] [nM] | solubility [3] [µM] | remaining at 0.5 h [4] [%] | Vd [5] [L/kg] | clearance [6] [mL/min/kg] | half-life [7] [min] | bioavailability [8] [%] | fraction unbound [9] | IC50 [10] [nM] | remaining at 0.5 h [11] [%] | Ratio IC50 [12] | Ratio IC50 [13] | SMILES | inhibition at 10 µM (hERG (KCNH2)) [%] | inhibition (INH) [14] [%] | Activity (Rattus norvegicus) [mmHg]
4 | 11.3 | 346 | 18 (≈ 8.43 µg/mL) | 38 | 1.6 | 33.6 | 192 | 21 | 0.5 | 0.07 | – | – | – | CCCOCCn1c(=O)c(NCCN2CCOCC2)nc2cnc(-c3ccc(OC)nc3)cc21 | 23 | – | –
5 | 83 | 1470 | 4.6 (≈ 2.16 µg/mL) | 22 | – | – | – | – | – | 1.21 | – | – | – | CCCOCCn1c(=O)c(NCCN2CCOCC2)nc2cnc(-c3ccc(OC)nc3)nc21 | 15 | – | –
6 | 61.8 | 1390 | 46 (≈ 21.6 µg/mL) | 18 | 18.8 | 178 | 204 | – | 0.235 | 0.34 | – | – | – | CCCOCCn1c(=O)c(NCCN2CCOCC2)nc2ncc(-c3ccc(OC)nc3)cc21 | 34 | 34 | 25
